How the values were obtained:
[1] = test system: E. coli (strain NCTC 10418); assay: Antimicrobial susceptibility testing by flow cytometry-based assay (LIVE/DEAD BacLight, Syto9/PI); format: cell-based, Escherichia coli
Protocol: (§1) E. coli (strain NCTC 10418), P. aeruginosa (Strain PAO1) and S. aureus (Wood 46, NCTC 7121) cells were grown in 5 mL of Todd Hewitt Broth medium (THB; Sigma-Aldrich). Bacteria were cultivated at 37° C. for 15 h in a 15 mL tube to obtain late-log phase cultures. Bacterial cultures were pelleted at 3096 g for 10 minutes; the supernatant was discarded and bacteria were resuspended in phosphate-buffered saline (PBS) supplemented with 40 mg/ml human albumin to mimic chemical properties of blood. Bacteria were diluted to a standardized inoculum of 10^9 CFU/mL.
(§2) Bacteria were treated with GA, LL-37, Piperacillin/Tazobactam or Vancomycin in varying concentrations, i.e. 50, 25, 10 or 2 μg/ml, for 30 minutes. As a positive control, bacteria were treated with 7% isopropanol. Hereafter, bacteria were pelleted at 3096 g for 10 minutes; the supernatant was discarded and bacteria were resuspended in PBS. The antimicrobial effect was tested in a well-established and widely used flow cytometry-based assay (LIVE/DEAD® BacLight™ Bacterial Viability and Counting Kit (L34856), Molecular Probes/Invitrogen) according to manufacturer's manual.
(§3) For each bacteria, the flow cytometry-based assay was repeated four times.
Flow cytometry was used to determine the antimicrobial activity of GA and LL-37. The flow cytometry diagrams show the results after treatment with 50 μg/ml LL-37, GA, piperacillin/tazobactam, 7% isopropanol and the untreated control. […] This gating strategy was primarily applied to avoid counting beads in the upper right corner of the FS-SS. […] Thus, a two-color fluorescence assay of bacterial viability, including PI and Syto9 staining, was applied. Syto9 stains all bacteria in a population, i.e. those with intact and those with damaged membranes. In contrast, propidium iodide (PI) penetrates only bacteria with damaged membranes, thereby making quantification of bacterial viability possible.

[2] = test system: E. coli (NCTC 10418); assay: Transmission electron microscopy of treated bacteria; format: cell-based, Escherichia coli
Description: (§4) Transmission electron microscopy (TEM) was applied to examine the ultrastructural changes in P. aeruginosa (PAO1), S. aureus (Wood 46) and E. coli (NCTC 10418) induced after treatment with GA and LL-37. […] This critical alteration in the outer membrane of E. coli has previously been described as a disintegration of the outer membrane into micelles and vesicle-like structures (Meincken, M., D. L. Holroyd, and M. Rautenbach, Atomic force microscopy study of the effect of antimicrobial peptides on the cell envelope of Escherichia coli. Antimicrob Agents Chemother, 2005. 49(10): p. 4085-92). […] After incubation with LL-37 and GA, we found burst cells, but this observation was most significant after treatment with LL-37 (FIG. 9). Scale bar, 0.5 μm. Experiments were performed as 2 replicates.

[3] = test system: P. aeruginosa (PAO1); assay: as above; format: cell-based, Pseudomonas aeruginosa
Description: as §4

[4] = test system: S. aureus (Wood 46); assay: as above; format: cell-based, Staphylococcus aureus
Description: as §4

[5] = test system: P. aeruginosa (Strain PAO1); assay: Antimicrobial susceptibility testing by flow cytometry-based assay (LIVE/DEAD BacLight, Syto9/PI); format: cell-based
Protocol: as §1, §2, §3
The antibacterial effect of GA on the gram-negative strain P. aeruginosa was tested by carrying out an experiment as described in Example 1. […] Although the untreated control stained positive for PI, this seemed to be explained by the capability of intact P. aeruginosa to secrete large quantities of DNA to the extracellular milieu.

[6] = test system: S. aureus (Wood 46, NCTC 7121); assay: as above; format: cell-based, Staphylococcus aureus; details: 30 minutes
Protocol: as §1, §2, §3

[7] = test system: P. aeruginosa (PAO1); assay: Antimicrobial activity in human serum and plasma (flow cytometry, PI/Syto9); format: cell-based, Pseudomonas aeruginosa; details: P. aeruginosa PAO1 ~10^8 cells/ml
Description: It has been reported that the antimicrobial activity of antimicrobial peptides are inhibited by their binding to different factors in human plasma (Wang, Y., et al., Apolipoprotein A-I binds and inhibits the human antibacterial/cytotoxic peptide LL-37. J Biol Chem, 1998. 273(50): p. 33115-8), serum and is influenced by pH and ion composition (Johansson, J., et al., Conformation-dependent antibacterial activity of the naturally occurring human peptide LL-37. J Biol Chem, 1998. 273(6): p. 3718-24). To investigate the potential of GA for systemic application, bacterial isolates of P. aeruginosa (PAO1, ˜10^8 cells/ml) were incubated with increasing concentrations of GA and compared to LL-37. Bacterial survival and enumeration was evaluated by a flow cytometry bead standard and stained with propidium iodide and Syto9 following procedures as previously described above in the antimicrobial susceptibility testing by flow cytometry-based assay. […] All experiments were performed as four replicates.

[8] = within the 30 minutes of treatment
[9] = positive control, 7% isopropanol

In the case of `CC[C@H](C)[C@H](NC(=O)[C@H](CCCCN)NC(=O)[C@H](CCC(=O)O)NC(=O)[C@H](CCCCN)NC(=O)[C@H](CO)NC(=O)[C@H](CCCCN)NC(=O)[C@H](CCCNC(=N)N)NC(=O)[C@H](Cc1ccccc1)NC(=O)[C@H](Cc1ccccc1)NC(=O)[C@H](CC(=O)O)NC(=O)CNC(=O)[C@H](CC(C)C)NC(=O)[C@@H](N)CC(C)C)C(=O)NCC(=O)N[C@@H](CCCCN)C(=O)N[C@@H](CCC(=O)O)C(=O)N[C@@H](Cc1ccccc1)C(=O)N[C@@H](CCCCN)C(=O)N[C@@H](CCCNC(=N)N)C(=O)N[C@H](C(=O)N[C@H](C(=O)N[C@@H](CCC(N)=O)C(=O)N[C@@H](CCCNC(=N)N)C(=O)N[C@H](C(=O)N[C@@H](CCCCN)C(=O)N[C@@H](CC(=O)O)C(=O)N[C@@H](Cc1ccccc1)C(=O)N[C@@H](CC(C)C)C(=O)N[C@@H](CCCNC(=N)N)C(=O)N[C@@H](CC(N)=O)C(=O)N[C@@H](CC(C)C)C(=O)N[C@H](C(=O)N1CCC[C@H]1C(=O)N[C@@H](CCCNC(=N)N)C(=O)N[C@H](C(=O)N[C@@H](CCC(=O)O)C(=O)N[C@@H](CO)C(=O)O)[C@@H](C)O)C(C)C)[C@@H](C)CC)C(C)C)[C@@H](C)CC` [LL-37], the “percentage of bacteria testing positive for PI” value (“percentage … for PI” for short) ([1]; 50 μg/ml, 30 minutes) is reported as 17.8%, the “percentage of bacteria testing positive for Syto-9” value (from here on “percentage … for Syto-9”) ([1]; 50 μg/ml, 30 minutes) is reported as 75.1% and the “ultrastructural changes (TEM, in words)” value [2] is reported as “Signs of damage to the bacterial membrane”. For the same compound, the “ultrastructural changes (TEM, in words)” value [3] was “dramatically reduced number of P. aeruginosa”, the “ultrastructural changes (TEM, in words)” value [4] was “burst cells” and the “antimicrobial activity (in words)” value [5, 8] was “more potent than when treating bacteria with 7% isopropanol”. The decreased bacterial inoculum [5, 8] was about 75%, the “increased PI positivity” value ([5]; within the 30 minutes of treatment (FIG. 4 overview)) was about 50% and the “antimicrobial activity (in words)” value [6] was “more potent than Vancomycin”. The “percentage … for PI” value [6] was 31.9% and the “antimicrobial activity in human plasma and serum (in words)” value [7] was “retains antimicrobial activity”.

In the case of `CN[C@H](CC(C)C)C(=O)N[C@H]1C(=O)N[C@@H](CC(N)=O)C(=O)N[C@H]2C(=O)N[C@H]3C(=O)N[C@H](C(=O)N[C@H](C(=O)O)c4cc(O)cc(O)c4-c4cc3ccc4O)[C@H](O)c3ccc(c(Cl)c3)Oc3cc2cc(c3O[C@@H]2O[C@H](CO)[C@@H](O)[C@H](O)[C@H]2O[C@H]2C[C@](C)(N)[C@H](O)[C@H](C)O2)Oc2ccc(cc2Cl)[C@H]1O` [Vancomycin], the “antimicrobial activity (in words)” value [6] is reported as “comparable to the one obtained for LL-37”.

For `CC(C)O` [isopropanol], the “percentage … for PI” value [1, 9] was 32.2% and the “percentage … for Syto-9” value [1, 9] was 61.7%.

With Piperacillin/Tazobactam the “percentage … for PI” value ([1]; 50 μg/ml, 30 minutes) was 10%, the “percentage … for Syto-9” value ([1]; 50 μg/ml, 30 minutes) was 86.8% and the “antimicrobial activity (in words)” value [1, 8] was “no antimicrobial activity”. For the same compound, the PI positivity ([5]; 50 μg/ml, 30 minutes) was “about 30%” and the “antimicrobial activity (in words)” value [5, 8] was “no antimicrobial activity”.

— patent US10166253B2, “Positively charged co-polymers for use as antimicrobial agents” (priority 2014, dated 2019)
